This is an account of results in PubChem BioAssay (NCI).

Molecules are shown by their SMILES.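 Following 48 hours of exposure in 96-well plates, responses at five concentrations were used to interpolate endpoints linearly. At the GI50, growth is halved. TGI denotes the concentration required for complete inhibition of growth.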 Where only a bound is given, the exact number is not on record here.

Some test systems named below: HCT-15 colon; NCI-H522 lung; CAKI-1 renal; UACC-257 melanoma; U251 CNS; MDA-MB-231 breast; K-562 leukemia; UACC-62 melanoma; LOX IMVI melanoma; HL-60(TB) leukemia.
What all share (assay): NCI anticancer screen, dose series, 48 h

As for `COC(=O)c1sc2ncc3c(c2c1N)CC(C)CC3` (centres undefined), the TGI with HCT-15 colon, in the test on NCI-H522 lung, in the test with CAKI-1 renal, in the test on UACC-257 melanoma, in the test with U251 CNS and with MDA-MB-231 breast was > 100 µM in each case. Moreover, the TGI in the test on K-562 leukemia, in the test on UACC-62 melanoma and with LOX IMVI melanoma was > 100 µM in each case.

On to `NNC(=O)c1cccc2c1Oc1ccccc1S2`, for which the TGI with HCT-15 colon, in the test on CAKI-1 renal, with UACC-257 melanoma, in the test on U251 CNS, with MDA-MB-231 breast and in the test with K-562 leukemia was > 100 µM each time. Besides, the TGI in the test with HL-60(TB) leukemia, in the test on UACC-62 melanoma and in the test on LOX IMVI melanoma was > 100 µM in each case.

`N/C(CSCCSC/C(N)=N/O)=N\O`: the TGI in the test on HCT-15 colon, with NCI-H522 lung, with CAKI-1 renal, in the test with U251 CNS, with MDA-MB-231 breast and in the test with K-562 leukemia was > 100 µM in each case. Besides, the TGI in the test with HL-60(TB) leukemia, with UACC-62 melanoma and in the test with LOX IMVI melanoma was > 100 µM in each case.

Regarding `CCNC(=S)N/N=C/c1ccccn1`, the TGI is > 100 µM in the test with HCT-15 colon; > 100 µM in the test with NCI-H522 lung; > 100 µM with UACC-257 melanoma; 75 µM with U251 CNS; > 100 µM in the test on MDA-MB-231 breast; > 100 µM in the test on K-562 leukemia. Moreover, the TGI is 23.2 µM with HL-60(TB) leukemia, 26.1 µM in the test on UACC-62 melanoma and > 100 µM with LOX IMVI melanoma.

For the compound `O=C(NCCCNCCCCNCCCNC(=O)C(F)(F)F)C(F)(F)F`, the TGI in the test on HCT-15 colon was > 100 µM; in the test on NCI-H522 lung it was > 100 µM; in the test on CAKI-1 renal it was 40.4 µM; with UACC-257 melanoma it was > 100 µM; with U251 CNS, > 100 µM; with MDA-MB-231 breast, > 100 µM. Further, the TGI with HL-60(TB) leukemia, in the test on UACC-62 melanoma and in the test with LOX IMVI melanoma was > 100 µM each time.

Turning to `O=c1oc2ccccc2c2nc3ccccc3cc12`, the TGI was > 100 µM in the test on HCT-15 colon; > 100 µM with NCI-H522 lung; > 100 µM in the test with CAKI-1 renal; > 100 µM in the test on UACC-257 melanoma; 87.9 µM with U251 CNS; > 100 µM in the test with MDA-MB-231 breast. Further, the TGI with K-562 leukemia, with HL-60(TB) leukemia and in the test with UACC-62 melanoma was > 100 µM each time.

Regarding `Cc1cn(C2CC(OC(c3ccccc3)(c3ccccc3)c3ccccc3)C(COC(c3ccccc3)(c3ccccc3)c3ccccc3)O2)c(=O)[nH]c1=O` (centres undefined), the TGI in the test on HCT-15 colon, in the test on CAKI-1 renal, in the test with UACC-257 melanoma, with MDA-MB-231 breast, in the test on K-562 leukemia and in the test on HL-60(TB) leukemia was > 100 µM throughout. Further, the TGI with UACC-62 melanoma and in the test on LOX IMVI melanoma was > 100 µM in each case.

On to `COC(=O)C1=C(C(=O)OC)C2(C)CCC(=O)C1O2` (centres undefined), for which the TGI in the test with HCT-15 colon, in the test with CAKI-1 renal, in the test on UACC-257 melanoma, with U251 CNS, in the test on MDA-MB-231 breast and with K-562 leukemia was > 10 µM in each case. Besides, the TGI in the test on HL-60(TB) leukemia, with UACC-62 melanoma and in the test on LOX IMVI melanoma was > 10 µM in each case.

For the compound `CC1=NC(C)(C)N(O)C1(C)C`, the TGI in the test on HCT-15 colon, in the test on NCI-H522 lung, in the test with U251 CNS, in the test on MDA-MB-231 breast, with K-562 leukemia and with HL-60(TB) leukemia was > 100 µM throughout. The TGI in the test on UACC-62 melanoma and with LOX IMVI melanoma was > 100 µM throughout.

Turning to `COc1cc(-c2c3c(cc4c2OCO4)[C@@H](Nc2ccc4c(c2)Cc2cc(N[C@@H]5c6cc7c(cc6C(c6cc(OC)c(O)c(OC)c6)[C@H]6C(=O)OC[C@H]56)OCO7)ccc2-4)[C@H]2COC(=O)[C@@H]2C3)cc(OC)c1O` (some centres undefined), the TGI in the test with HCT-15 colon was > 100 µM; in the test with CAKI-1 renal, 88.9 µM; in the test with UACC-257 melanoma it was > 100 µM; with U251 CNS, 89 µM; in the test on MDA-MB-231 breast, > 100 µM; with HL-60(TB) leukemia it was > 100 µM. Moreover, the TGI with LOX IMVI melanoma was > 100 µM.

With `COC(=O)[C@H]1C=C[C@H](OC2OC(COC(C)=O)C(OC(C)=O)C(OC(C)=O)C2OC(C)=O)n2c(=O)n(-c3ccccc3)c(=O)n21` (some centres undefined), the TGI is 3.55 µM in the test with HCT-15 colon; 0.504 µM with NCI-H522 lung; 2.4 µM with CAKI-1 renal; 20.6 µM with UACC-257 melanoma; 27.9 µM in the test on U251 CNS; 24.5 µM in the test on MDA-MB-231 breast. Also, the figures for the TGI with K-562 leukemia, with HL-60(TB) leukemia and in the test with UACC-62 melanoma were 4.91 µM, > 100 µM and 3.01 µM, respectively.

Take `Cc1ncc([N+](=O)[O-])n1CCNC(=O)CCCCn1ccnc1[N+](=O)[O-]`: the TGI with HCT-15 colon, in the test with NCI-H522 lung, with CAKI-1 renal, in the test on UACC-257 melanoma, with U251 CNS and with MDA-MB-231 breast was > 100 µM in each case. Further, the TGI in the test with K-562 leukemia, in the test with HL-60(TB) leukemia and in the test with UACC-62 melanoma was > 100 µM each time.

As for `O=c1cc(-c2ccccc2F)[nH]c2cc3c(cc12)OCO3`, the TGI with HCT-15 colon was 4.22 µM; with NCI-H522 lung, 0.238 µM; with UACC-257 melanoma, > 77.5 µM; in the test on U251 CNS, 22.5 µM; in the test with MDA-MB-231 breast, 3.34 µM; with K-562 leukemia it was > 15.7 µM. In addition, the TGI was 1.09 µM with HL-60(TB) leukemia, > 100 µM with UACC-62 melanoma and > 78.8 µM with LOX IMVI melanoma.

With `Nc1nc(Nc2ccc(OCc3cccc(F)c3)cc2)c2c(n1)[nH]c1ccc(O)cc12`, the GI50 in the test on HCT-15 colon is 3.61 µM; in the test with NCI-H522 lung, 1990 nM; with UACC-257 melanoma, 4.81 µM; in the test with U251 CNS, 2440 nM; in the test with MDA-MB-231 breast it was 2710 nM; with K-562 leukemia, 2660 nM. The figures for the GI50 in the test with HL-60(TB) leukemia and with UACC-62 melanoma were 2010 nM and 1950 nM, respectively. In addition, the TGI in the test with HCT-15 colon is 16.2 µM; in the test on NCI-H522 lung, 4.67 µM; in the test with UACC-257 melanoma it was 22.2 µM; in the test on U251 CNS, 6.09 µM; in the test with MDA-MB-231 breast, 7.33 µM; in the test with K-562 leukemia, 6.65 µM. The TGI with HL-60(TB) leukemia came to 4.21 µM; in the test on UACC-62 melanoma it was 4.09 µM.
